Assay results as given in patent US20240166690A1, “MULTI-TARGET CY[…] FOR OPIOID/NEUROPEPTIDE FF RECEPTORS, AND PREPARATION THEREFOR AND APPLICATION THEREOF” (SHANGHAI TIANCI LIFE SCIENCE DEVELOPMENT CO., LTD., priority 2021, published 2024).
Bridge positions count the residues as written; N and C are the ends. Square brackets hold non-standard residues; d marks the D form. Peptide text beside a SMILES is read from it. NMeF = CN[C@@H](Cc1ccccc1)C(=O)O; dOrn = NCCC[C@@H](N)C(=O)O

Assays:
Kappa-opioid receptor = target: T1, Kappa-opioid receptor (Homo sapiens, UniProt P41145); experiment: cAMP functional experiment, Kappa-opioid receptor (forskolin-induced cAMP accumulation); format: cell-based
T1 construct: expressed in transfected cells; host or cells: HEK293
Method: (§1) The agonistic activity of the cyclopeptide molecule of the present invention against Mu-opioid receptor, Delta-opioid receptor, Kappa-opioid receptor, NPFF1 receptor and NPFF2 receptor was evaluated by detecting the regulation of the cyclopeptide molecule of the present invention on the intracellular accumulation of cyclic adenosine monophosphate (cAMP) induced by Forskolin in HEK293 cells stably expressing these five receptors. The experimental method was: the cells were seeded in 24 well plates with 120000 cells per well, and were cultured for more than 20 hours. At the beginning of the experiment, the culture medium in the culture dish was suck out, and then 500 μL of preheated serum-free medium containing 1 mM of IBMX was added, the mixture was incubated at 37° C. for 10 minutes. Then each 10 μL of the drug to be tested and 10 μM of forskolin (final concentration) were added to each well. The mixture was incubated at 37° C. for 30 minutes. After incubation, all the liquid was suck out from the culture dish, 500 μL of 0.2 N hydrochloric acid was added to each well, the mixture was incubated at room temperature for 30 minutes to promote cell lysis. After lysis was complete, NaOH was added to neutralize the hydrochloric acid solution used for lysis. Then all the liquid was suck out from the culture dish into centrifuge tubes, the liquid was centrifuged at 12000 rpm for 2 minutes. 50 μL was taken to a clean centrifuge tube, 100 μL of 60 μg/μL PKA was added, and 100 μL of TE cAMP buffer was added to the blank control group (B). Another 50 μL of 0.5 μ Ci[^3H]cAMP was added to each of the above centrifuge tubes, the mixture was quickly mixed and incubated at 4° C. for more than 2 hours. After incubation, another 100 μL of activated carbon suspension was added to each tube, the mixture was vortex agitated evenly, placed in an ice bath for 1 minute, centrifuged at 5000 rpm for 4 minutes. 200 μL of supernatant after centrifugation in each tube was suck out to a 24 well plate, with an additional 700 μL of scintillator liquid added per well, then the 24 well plate was sealed with adhesive film, placed for 3 hours, then placed on the scintillation instrument for measurement.
(§2) The inhibitory effect of cAMP was represented by the percentage (% control) of drug inhibition of intracellular cAMP accumulation induced by Forskolin, wherein % control=(cAMP content when treated with Forskolin−cAMP content when Forskolin co-treated with the test drug)/(cAMP content when treated with Forskolin−cAMP content when treated with solvent). The related % control data was represented by mean±S.E.M. The dose-effect relationship of the drug was statistically analyzed using a nonlinear regression model, and the IC50 values of the multi-target cyclopeptide molecule on inhibition of Forskolin induced intracellular cAMP accumulation were calculated using the statistical software GraphPad Prism version 5.0.

NPFF1 receptor = target: T2, NPFF1 receptor (Homo sapiens, UniProt Q9GZQ6); experiment: cAMP functional experiment, NPFF1 receptor (forskolin-induced cAMP accumulation); format: cell-based
T2 construct: expressed in transfected cells; host or cells: HEK293
Method: as §1, §2

Kunming male mice [1] = experiment: Analgesic tolerance assay, oral injection for 8 consecutive days; format: in vivo; conditions: 8 consecutive days of oral injection, tail flick latency
Method: The analgesic tolerance experiment was conducted by orally injecting compounds 1 and 11 for 8 consecutive days, and then identifying the changes in the analgesic tail flick threshold from the first day to the eighth day through a photothermal tail flick experiment, thus evaluating the pharmacological activity of compounds 1 and 11 in the present invention in terms of analgesic tolerance.
21±2 g Kunming male mice were selected for the experiment, and the mice were eat freely. Generally, the basic pain threshold of mice was measured on the first day, followed by oral injection of compounds 1 and 11 for 8 consecutive days. The pain threshold at different time points was measured on the first day, and only the pain threshold at the highest analgesic point was measured on the following 7 days.
The experimental data was represented by tail flick time. The analgesic tolerance of drugs was compared using the tail flick latency at the maximum analgesic effect time point of different compounds. The tail flick latency data was represented by mean±S.E.M. The differences of analgesic effects of […] administration for eight days in mice were analyzed using one-way ANOVA (Tukey HSD test). *P<0.05, **P<0.01, and ***P<0.001 indicated a significant difference in analgesic effects compared to the injection of the drug on the first day.

Delta-opioid receptor = target: T3, Delta-opioid receptor (Homo sapiens, UniProt P41143); experiment: cAMP functional experiment, Delta-opioid receptor (forskolin-induced cAMP accumulation); format: cell-based
T3 construct: expressed in transfected cells; host or cells: HEK293
Method: as §1, §2

Kunming male mice [2] = experiment: Photothermal tail flick experiment, oral administration; format: in vivo; conditions: for Maximum analgesic time: oral administration at the maximum analgesic dose; for Maximum analgesic time / analgesic duration: tail flick; for ED50 value (95% confidence interval), oral analgesic activity / analgesic duration: oral administration; for ED50 value (95% confidence interval), oral analgesic activity: photothermal tail flick
Method: Two administration methods were used: peripheral subcutaneous administration and oral administration. Subsequently, the analgesic activity of the drug was studied using an acute pain model of photothermal tail flick in mice.
1 mL sterile syringe was used for oral administration (p.o.), the pinhead was replaced with a mouse gastric lavage needle, and […] of the drug was orally administered. The skin on the neck and back of the mouse was grasped with the left hand with the abdomen facing upwards. Noted that the mouse's entire body was fixed to vertical, which was beneficial for oral gavage. A gastric lavage needle (No. 12 needle and 1 mL syringe) was held in the right hand and was inserted to the esophagus along the upper jaw which is pressed the tongue tightly from the corner of the mouse's mouth. Gastric lavage fluid can be injected when the needle inserted 2.5 cm. The inserting length of the needle should be determined through practice in advance, as there is a sense of falling into a hole after the needle is inserted. If the injection position was appropriate, it should be very smooth. […] This can cause immediate death of the mouse after gavage.
The photothermal tail flick experiment is based on the experimental method summarized by D'Amour and Smith to optimize the experimental parameters. The experiment selected Kunming male mice with body weigh 21±2 g, and ambient temperature controlled at 22±2° C. The experimental mice were allowed to drink water freely and were moved from the breeding room to the experimental area for adaptation for 30 minutes before starting the experiment. Then the mice were grab with the right hand and the tail hang freely. Then the mice's tail were placed on a radiation light source, 2-3 mm away from the mice tail. The intensity of radiation heat was adjusted to the tail flick time of mice being 3-5 s, which is the basic pain threshold of photothermal tail flick. The irradiation time of the mice tail should not exceed 10 s to prevent scalding of the mice tail, which was the maximum latency for photothermal tail flick. After administration, time points of 10, 20, 30, 45, 60, 90, 120, 180, 240, 300, 360, and 420 minutes were selected to measure the tail flick latency of mice after administration.
The analgesic effect of drugs was generally evaluated using the maximum analgesic effect MPE (%), MPE (%)=100×[(pain threshold after administration−basic pain threshold)/(10 seconds−basic pain threshold)]. 50% effective dose (ED50) refers to the corresponding drug dose that causes a 50% effect. ED50 and 95% confidence interval were calculated using MPE (%) and the drug concentration that achieves the maximum analgesic effect MPE (%) by the statistical software GraphPad Prism 5.0. The difference in analgesic effects was statistically analyzed using one-way ANOVA (Dunnett test), *P<0.05, **P<0.01, and ***P<0.001 indicated significance of the difference between the group with only drug injected and the saline group.

T3 sequence (P41143 whole entry): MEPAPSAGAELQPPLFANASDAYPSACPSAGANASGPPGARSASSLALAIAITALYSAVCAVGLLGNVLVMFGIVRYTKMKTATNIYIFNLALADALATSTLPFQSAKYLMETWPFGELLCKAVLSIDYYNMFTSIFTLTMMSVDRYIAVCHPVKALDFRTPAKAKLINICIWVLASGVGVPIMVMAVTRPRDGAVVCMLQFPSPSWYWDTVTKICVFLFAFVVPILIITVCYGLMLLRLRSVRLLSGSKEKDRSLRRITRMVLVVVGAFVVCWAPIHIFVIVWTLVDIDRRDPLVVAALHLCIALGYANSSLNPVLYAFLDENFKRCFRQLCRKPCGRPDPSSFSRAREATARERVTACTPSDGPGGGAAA
T1 sequence (P41145 whole entry): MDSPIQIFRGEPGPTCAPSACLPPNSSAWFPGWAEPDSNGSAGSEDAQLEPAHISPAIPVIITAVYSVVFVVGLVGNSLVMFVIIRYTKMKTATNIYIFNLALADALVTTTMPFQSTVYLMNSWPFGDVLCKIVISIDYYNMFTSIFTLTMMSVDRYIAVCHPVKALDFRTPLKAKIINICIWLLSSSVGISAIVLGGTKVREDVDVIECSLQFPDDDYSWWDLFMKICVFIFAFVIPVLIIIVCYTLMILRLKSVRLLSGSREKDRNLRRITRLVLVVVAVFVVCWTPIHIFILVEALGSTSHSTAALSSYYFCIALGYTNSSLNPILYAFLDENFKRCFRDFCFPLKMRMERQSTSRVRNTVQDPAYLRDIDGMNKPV
T2 sequence (Q9GZQ6 whole entry): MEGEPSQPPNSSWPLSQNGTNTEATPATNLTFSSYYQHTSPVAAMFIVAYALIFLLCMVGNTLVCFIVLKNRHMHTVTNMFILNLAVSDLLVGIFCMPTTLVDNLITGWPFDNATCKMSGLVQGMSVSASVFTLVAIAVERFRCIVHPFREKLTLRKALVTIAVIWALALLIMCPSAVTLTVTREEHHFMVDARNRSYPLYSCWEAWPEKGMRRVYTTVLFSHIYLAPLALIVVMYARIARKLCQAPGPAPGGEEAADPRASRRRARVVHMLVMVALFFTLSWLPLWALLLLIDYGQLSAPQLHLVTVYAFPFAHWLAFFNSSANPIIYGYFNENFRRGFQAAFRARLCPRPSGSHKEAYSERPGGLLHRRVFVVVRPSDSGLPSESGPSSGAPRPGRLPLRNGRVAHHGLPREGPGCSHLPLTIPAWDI

Compound	IC50 (Kappa-opioid receptor) [µM]	IC50 (NPFF1 receptor) [µM]	analgesic tolerance (Kunming male mice [1])	IC50 (Delta-opioid receptor) [µM]	Maximum analgesic time (Kunming male mice [2]) [min]	ED50 value (95% confidence interval), oral analgesic activity (Kunming male mice [2]) [µg/kg]	analgesic duration (Kunming male mice [2]) [min]
CN1C(=O)CNC(=O)[C@H](NC(=O)[C@@H](N)Cc2ccc(O)cc2)CCCCNC(=O)C[C@@H](C(=O)N2CCC[C@H]2C(=O)N[C@@H](CCC(N)=O)C(=O)N[C@@H](CCCNC(=N)N)C(=O)N[C@@H](Cc2ccccc2)C(N)=O)NC(=O)[C@@H]1Cc1ccccc1 [Compound 1, Tyr-c[D-Lys-Gly-NMe-Phe-Asp]-Pro-Gln-Arg-Phe-NH2] (H-Y[dK]G[NMeF]DPQRF-NH2; lactam 2-5)	0.039	0.104	no analgesic tolerance observed	0.549	30	1.37	240
CN1C(=O)CNC(=O)[C@H](NC(=O)[C@@H](N)Cc2ccc(O)cc2)CCCNC(=O)CC[C@@H](C(=O)N2CCC[C@H]2C(=O)N[C@@H](CCC(N)=O)C(=O)N[C@@H](CCCNC(=N)N)C(=O)N[C@@H](Cc2ccccc2)C(N)=O)NC(=O)[C@@H]1Cc1ccccc1 [Compound 11, Tyr-c^[2,5][D-Orn-Gly-NMe-Phe-Glu]-Pro-Gln-Arg-Phe-NH2] (H-Y[dOrn]G[NMeF]EPQRF-NH2; lactam 2-5)	0.109	0.0429	no analgesic tolerance observed	1.56	20	0.14	240
